Tested on: PDE1
Test: PDE1 enzyme inhibition assay
Assay type: biochemical
Conditions: PDE1 partially purified from bovine heart; 25° C.; varying concentrations; 1% DMSO vehicle
From the text: In this example, dichloroflosequinan was subjected to biochemical enzyme assays to determine its respective percent inhibition of a variety of phosphodiesterases (PDE1–PDE6). The methods used have been adapted from those described in the scientific literature, see Hidaka and Asano “Human blood platelet 3′:5′ cyclic nucleotide phosphodiesterase. Isolation of low-Km and high Km phosphodiesterase.” Biochem. Biophys. […] Unhydrolyzed cAMP was bound to AGI-X2 resin, and the remaining [^3H]adenosine in the aqueous phase was quantitated by scintillation counting. • PDE2: PDE2 partially purified from human platelets was used. […] Unhydrolyzed cAMP was bound to AGI-X2 resin, and the remaining [^3H]adenosine in the aqueous phase was quantitated by scintillation counting. • PDE3: PDE3 partially purified from human platelets was used. […] Unhydrolyzed cAMP was bound to AGI-X2 resin, and the remaining [^3H]adenosine in the aqueous phase was quantitated by scintillation counting. • PDE4: PDE4 partially purified from human U-937 pronocytic cells was used. […] Unhydrolyzed cAMP was bound to AGI-X2 resin, and the remaining [^3H]adenosine in the aqueous phase was quantitated by scintillation counting. • PDE5: PDE5 partially purified from human platelets was used. […]

inhibition of PDE1: greater than 50%
Structure (SMILES): Cn1cc([S+]([O-])C(Cl)Cl)c(=O)c2ccc(F)cc21 (stereo not shown) [dichloroflosequinan, 3-dichloromethylsulfinyl-7-fluoro-1-methyl-4-quinolone]
